Assay results: ChEMBL document CHEMBL1681726, “Discovery of orally available tetrahydroquinoline-based glucocorticoid receptor agonists” (Bioorg Med Chem Lett, 2011)

What was measured:
Androgen receptor = target: T1, Androgen receptor (Homo sapiens, UniProt P10275); test: Binding affinity to AR
T1 sequence (P10275 whole entry): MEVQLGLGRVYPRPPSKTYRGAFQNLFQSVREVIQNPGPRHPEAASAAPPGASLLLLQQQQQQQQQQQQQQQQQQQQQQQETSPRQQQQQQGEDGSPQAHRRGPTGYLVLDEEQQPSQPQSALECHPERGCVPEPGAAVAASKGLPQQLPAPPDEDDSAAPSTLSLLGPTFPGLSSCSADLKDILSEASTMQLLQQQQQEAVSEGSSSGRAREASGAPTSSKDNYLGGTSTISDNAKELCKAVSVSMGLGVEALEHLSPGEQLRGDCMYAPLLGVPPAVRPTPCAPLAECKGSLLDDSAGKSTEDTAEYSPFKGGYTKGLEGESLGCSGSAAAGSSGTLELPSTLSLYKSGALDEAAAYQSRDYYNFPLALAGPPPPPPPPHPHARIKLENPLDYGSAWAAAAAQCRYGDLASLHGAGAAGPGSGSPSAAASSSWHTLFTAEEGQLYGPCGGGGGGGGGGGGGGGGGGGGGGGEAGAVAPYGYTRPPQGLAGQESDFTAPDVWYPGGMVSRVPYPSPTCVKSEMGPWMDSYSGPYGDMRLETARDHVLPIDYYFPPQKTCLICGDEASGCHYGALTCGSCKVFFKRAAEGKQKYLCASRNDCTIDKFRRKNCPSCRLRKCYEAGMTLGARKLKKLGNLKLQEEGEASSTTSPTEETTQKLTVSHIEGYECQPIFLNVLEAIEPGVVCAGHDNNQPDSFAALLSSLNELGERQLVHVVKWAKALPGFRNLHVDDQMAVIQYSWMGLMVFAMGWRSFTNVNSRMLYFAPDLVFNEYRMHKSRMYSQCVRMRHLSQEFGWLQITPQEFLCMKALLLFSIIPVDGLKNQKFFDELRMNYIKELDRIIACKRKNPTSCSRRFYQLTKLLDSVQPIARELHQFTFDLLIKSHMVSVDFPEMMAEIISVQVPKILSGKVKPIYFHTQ

[1] = Metabolic stability in human liver microsomes by HPLC-MS/MS; format: ADME, Microsome
[2] = AUC in Sprague-Dawley rat at 30 mg/kg, po; format: ADME, organism-based; set-up: dose 30 mg/kg, route oral; conditions: plasma
[3] = Apparent half life in Sprague-Dawley rat at 30 mg/kg, po; format: ADME, organism-based; set-up: dose 30 mg/kg, route oral; conditions: in vivo
[4] = Metabolic stability in CD-1 […] liver microsomes by HPLC-MS/MS; format: ADME, Microsome; conditions: CD-1, liver microsomes
[5] = target: T2, Mineralocorticoid receptor (Homo sapiens, UniProt P08235); test: Binding affinity to MR
T2 sequence (P08235 whole entry): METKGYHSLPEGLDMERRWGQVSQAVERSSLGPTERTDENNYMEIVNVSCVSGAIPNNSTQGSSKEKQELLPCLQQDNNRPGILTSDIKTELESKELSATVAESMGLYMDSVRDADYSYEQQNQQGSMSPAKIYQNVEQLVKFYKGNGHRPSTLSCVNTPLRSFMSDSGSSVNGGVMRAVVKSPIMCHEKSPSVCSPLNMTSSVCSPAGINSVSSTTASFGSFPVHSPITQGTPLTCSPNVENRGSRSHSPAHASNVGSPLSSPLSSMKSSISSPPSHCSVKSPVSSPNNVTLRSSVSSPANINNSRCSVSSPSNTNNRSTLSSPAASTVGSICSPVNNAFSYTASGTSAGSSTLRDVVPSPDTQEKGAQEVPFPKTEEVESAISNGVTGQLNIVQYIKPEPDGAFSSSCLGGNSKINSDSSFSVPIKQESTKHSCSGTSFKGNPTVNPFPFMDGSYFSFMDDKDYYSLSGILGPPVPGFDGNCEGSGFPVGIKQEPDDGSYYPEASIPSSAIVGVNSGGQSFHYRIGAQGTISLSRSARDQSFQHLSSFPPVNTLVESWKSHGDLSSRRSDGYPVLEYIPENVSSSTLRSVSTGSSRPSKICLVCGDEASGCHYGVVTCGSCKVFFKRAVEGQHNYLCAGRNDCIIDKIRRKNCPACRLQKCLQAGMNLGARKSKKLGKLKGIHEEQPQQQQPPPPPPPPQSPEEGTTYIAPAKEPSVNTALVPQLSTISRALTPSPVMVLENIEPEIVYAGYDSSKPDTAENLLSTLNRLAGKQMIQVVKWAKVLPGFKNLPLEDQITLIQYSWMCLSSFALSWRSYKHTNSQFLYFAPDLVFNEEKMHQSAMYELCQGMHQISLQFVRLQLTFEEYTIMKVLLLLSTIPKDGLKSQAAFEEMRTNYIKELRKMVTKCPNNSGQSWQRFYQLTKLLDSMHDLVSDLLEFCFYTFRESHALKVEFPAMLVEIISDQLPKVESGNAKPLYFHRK

Glucocorticoid receptor [6] = target: T3, Glucocorticoid receptor (Homo sapiens, UniProt P04150); test: Agonist activity at GR expressed in african green monkey CV1 cells transfected with luciferase gene linked to MMTV promoter assessed as induction of luciferase transactivation activity relative to Dexamethasone; format: functional, cell-based, CV-1
T3 sequence (P04150 whole entry): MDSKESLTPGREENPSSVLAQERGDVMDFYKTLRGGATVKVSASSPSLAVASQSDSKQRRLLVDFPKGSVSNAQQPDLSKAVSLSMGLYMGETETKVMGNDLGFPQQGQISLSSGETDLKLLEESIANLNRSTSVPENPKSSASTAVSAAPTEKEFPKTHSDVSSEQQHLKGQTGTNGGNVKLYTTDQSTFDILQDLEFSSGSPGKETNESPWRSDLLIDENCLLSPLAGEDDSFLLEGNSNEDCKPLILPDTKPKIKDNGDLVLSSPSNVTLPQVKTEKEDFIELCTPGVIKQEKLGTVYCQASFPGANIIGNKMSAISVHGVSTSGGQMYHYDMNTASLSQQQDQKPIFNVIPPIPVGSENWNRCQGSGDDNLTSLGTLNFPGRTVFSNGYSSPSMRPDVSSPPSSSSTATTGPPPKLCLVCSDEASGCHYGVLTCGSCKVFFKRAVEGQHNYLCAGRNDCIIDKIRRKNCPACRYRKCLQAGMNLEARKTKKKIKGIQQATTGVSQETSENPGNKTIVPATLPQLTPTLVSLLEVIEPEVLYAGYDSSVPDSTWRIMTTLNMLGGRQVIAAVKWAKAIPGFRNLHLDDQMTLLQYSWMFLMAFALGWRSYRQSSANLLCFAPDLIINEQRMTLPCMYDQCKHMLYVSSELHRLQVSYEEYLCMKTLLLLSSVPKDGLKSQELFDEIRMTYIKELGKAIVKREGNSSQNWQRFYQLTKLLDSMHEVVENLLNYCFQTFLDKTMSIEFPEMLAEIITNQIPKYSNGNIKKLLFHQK

[7] = Selectivity ratio of Ki for GR to Ki for PR
Glucocorticoid receptor [8] = target: T3, Glucocorticoid receptor; test: Displacement of radiolabeled Dexamethasone from GR
Glucocorticoid receptor [9] = target: T3, Glucocorticoid receptor; test: Agonist activity at human GR expressed in NHDF cells assessed as inhibition of IL-6 production by ELISA relative to Dexamethasone; format: functional, cell-based
Glucocorticoid receptor [10] = target: T3, Glucocorticoid receptor; test: Agonist activity at GR expressed in IL-1beta- and TNFalpha-stimulated HepG2 cells assessed as inhibition of NFKB- or AP-1 mediated E-selectin transcription by luciferase reporter gene assay relative to Dexamethasone; format: functional, cell-based

Ki (Androgen receptor): 1430 nM | half-life [1]: 48 min | AUC [2]: 35000 ng·h/mL | half-life [3]: 192 min | half-life [4]: 30 min | Ki [5]: 1520 nM | EC50 (Glucocorticoid receptor [6]): 0.6 nM | Ratio Ki [7]: > 500 | Ki (Glucocorticoid receptor [8]): 2.5 nM | IC50 (Glucocorticoid receptor [9]): 11 nM | IC50 (Glucocorticoid receptor [10]): 1.5 nM
Compound: C[C@H]1c2c(cc(F)c(-c3cccc4cc[nH]c34)c2F)NC(C)(C)[C@@H]1O (racemic)
